# Experimental data from paper PMC6528491 (Frontiers in Pharmacology, 2019).
# Read-outs that look alike come from different tables or passages of the source.
# How the values were obtained:
# [1] = set-up: method as in 2 sources, ref Wu et al., 2005 ||| ref Li et al., 2014; conditions: cited from earlier work
# Caco2 cell system = conditions: Caco-2; cited from earlier work
# P-gp = conditions: rats; after multiple oral doses of BG; ref Tian et al., 2019; cited from earlier work
# [2] = cited from earlier work
# Excerpt: After oral administration, BG is rapidly hydrolyzed to baicalein ...
# [3] = intravenous high BG doses (0.23–0.90g/kg) to rats; ref Xin et al., 2013; cited from earlier work
# [4] = Clinical drug-drug interaction study, non-compartmental pharmacokinetics of CsA in blood; assay type: in vivo, healthy Chinese volunteers; conditions: single 500 mg BG dose with 200 mg CsA; healthy volunteers; NCA
# Protocol: The study was a single center, open-labeled, two-period, fixed-sequence clinical trial. […] Water intake was allowed 2 h after administration of the drug. All participants were given a standardized meal 4 h after dosing. […] Blood samples were withdrawn using vacuum tubes containing EDTA-K2 and immediately transferred to labeled tubes. The samples were stored at −80°C for subsequent analysis. […] Processing of the whole blood samples involved a two-step protein precipitation. Fifty microliters of zinc sulfate (10 mM) were added to 50 μl of a sample. […] After centrifugation, an aliquot (2 μl) of the supernatant was then injected onto an ultra high-performance liquid chromatography coupled with tandem mass spectrometry (UHPLC–MS/MS) device for analysis. UHPLC–MS/MS was performed using an ExionLC™ analytical UHPLC system (AB Sciex, MA, USA), coupled with a Qtrap 4,500 mass spectrometer (AB Sciex, Framingham, MA, USA), equipped with the Turbo lonSpray interface. […] The protonated analyte ions were detected in positive ionization and multiple reaction monitoring modes. […] Calibration curves were linear over the concentration range of 10–3,000 ng/ml. […] Exploratory statistical comparisons of pharmacokinetic parameters between male and female subjects were performed by the t-test for independent data. […]
# [5] = Population pharmacokinetic analysis of CsA (NONMEM, two-compartment model with transit compartments); assay type: in vivo, healthy Chinese volunteers; conditions: 95% CIs from 1,000 bootstrap samples included 1.0 and were inside 0.8–1.25
# [6] = rats, cited from earlier work
# CYP3A4 = conditions: cited from earlier work
# [7] = set-up: method as in 2 sources, one per row (each row's own in cited_ref): ref Albengres and Tillement, 1992; Keogh et al., 1995 ||| ref Atiq et al., 2016; conditions: ref Albengres and Tillement, 1992; Keogh et al., 1995; cited from earlier work
# [8] = multiple oral administrations of BG 80 mg/kg, ref Tian et al., 2019
# [9] = single dose of BG 136.6 mg/kg, ref Lai et al., 2004
smiles,measurement,setting,value
"O=C(O)[C@H]1O[C@@H](Oc2cc3oc(-c4ccccc4)cc(=O)c3c(O)c2O)[C@H](O)[C@@H](O)[C@@H]1O [BG, baicalein 7-O-glucuronide]",AUC of BG,"[1]; after oral administration of 750 mg BG, healthy subjects, ref Wu et al., 2005",613 ng·h/mL
same,Tmax,"[1]; oral BG, ref Wu et al., 2005",7.4 h
same,Papp,Caco2 cell system,0.275 ± 1.14 × 10^−6 cm/s
same,Expression of P-gp in the intestine,P-gp,increased
same,Expression of P-gp in the liver,P-gp,not changed
same,Bound to proteins,"[2]; human plasma, ref Tang et al., 2006",86–92%
same,Solubility,"[2]; in water, ref Wu et al., 2011",57 µg/mL
same,Elimination half-life,"[2]; ref Noh et al., 2016",6.36 ± 5.85 h
same,Oral bioavailability,"[2]; ref Wu et al., 2014",2.2%
same,Decrease of the clearance of midazolam,[3],up to 43%
same,Effect of BG co-administration on the exposure of CsA,[4],no clinically relevant effect
same,Effect of factor BG co-treatment on popPK parameters of CsA (except Ka and Q),[5],did not affect the respective pharmacokinetic parameters of CsA to a clinically relevant extent
same,Effect on the exposure of CsA,"[6]; multiple intravenous doses of BG, ref Tian et al., 2019",did not affect the exposure of CsA
same,Decrease of AUC0-∞ of CsA,[6]; [8],25%
same,Decrease of Cmax of CsA,[6]; [8],38%
same,Effect on Cmax and AUC0-∞ of CsA,"[6]; oral administration of BG, ref Tian et al., 2019",significantly decreased
same,Effect on exposure to CsA,"[6]; ref Lai et al., 2004",increased exposure to oral CsA
same,Elevation of AUC of CsA compared with CsA alone,[6]; [9],~6 times
same,Elevation of Cmax of CsA compared with CsA alone,[6]; [9],about 4 times
same,Effect on the pharmacokinetics of CsA,"[6]; single intravenous dose and multiple doses of BG, ref Tian et al., 2019",had no effect
"O=c1cc(-c2ccccc2)oc2cc(O)c(O)c(O)c12 [B, baicalein]",Exposure to BG relative to exposure to B,"[1]; B single doses to healthy volunteers, ref Li et al., 2014",more than 10 fold
same,AUC of BG,"[1]; after oral administration of 100 mg B, healthy volunteers, ref Li et al., 2014",580 ng·h/mL
same,Tmax for both BG and B,"[1]; oral B, ref Li et al., 2014",about 1 h
same,Papp,Caco2 cell system,9e-06 cm/s
same,Ki,CYP3A4,2300 nM
CC(=O)N1CCN(c2ccc(OCC3COC(Cn4ccnc4)(c4ccc(Cl)cc4Cl)O3)cc2)CC1 (centres unmarked) [ketoconazole],Elevation of CsA concentrations by concomitant administration,[7],several-fold
